{"source": "patent US5786332A", "about": "“Cytokine restraining agents and methods of use in pathologies and conditions associated with altered cytokine levels” (Trega Biosciences, Inc., priority 1995, dated 1998)", "assay_type_in_all_cases": "in vivo", "key": {"Wistar rats": {"system": "Wistar rats", "experiment": "LPS-induced temperature increase (fever)", "conditions": "6 hr following LPS", "experimental": "Male Wistar rats (45-75 days old) were placed in a temperature controlled room held at 26° C., which is thermoneutral for the normal body temperature of rats, and were maintained in the room with free access to food and water for 24 hr prior to testing. On the morning of the study, rats were marked for identification and weighed. The temperature of each rat was determined by placing the animal in a restraining cage designed to minimize stress and inserting a temperature probe (YSI probe #402) 3-5 cm into the animal's rectum. The temperature was recorded 15 sec after the reading stabilized. Measurements were repeated 1 hr later to establish a baseline temperature for each rat.\nAfter the baseline temperatures were established, rats were injected IP with saline, IL-1β or LPS endotoxin.\nRats then were injected IP with either saline (control) or various concentrations of EX-2, EX-3, or EX-4 (treated). The temperature of the rats was measured every hr for 6 hr and the inhibition by EX-2, EX-3, or EX-4 of the rise in temperature due to IL-1β or LPS was determined.\nIn addition, treatment with 50 or 150 μg/kg EX-2 inhibited LPS-induced fever by 45% or 52%, respectively, when measured 6 hr following LPS injection. Furthermore, treatment with 150 μg/kg EX-3 or EX-4 inhibited LPS-induced fever by 57% and 52%, respectively (Table II)."}, "Sprague-Dawley rats [1]": {"system": "Sprague-Dawley rats", "experiment": "Disuse deconditioning (tail suspension, 14 days)", "conditions": "1 or 5 μg/kg IP twice daily", "experimental": "Adult male Sprague-Dawley rats (355-365 g) were used in this study. Animals were housed individually in standard rat cages and were acclimated on a treadmill for 4 days. The next day, a baseline tail bleed was performed, followed by a maximal treadmill stress test the day after. The day following the stress test, the animals were divided into the appropriate treatment and control groups and the animals were suspended by their tails in suspension cages, which simulates weightlessness and, therefore, deconditions the animals. Another group of control animals was placed in standard rat cages with grated flooring similar to that utilized in the suspension cages. All animals were housed one per cage and supplied with food and water ad libitum. Body weights and food consumptions were measured daily. Animals received twice daily IP injections of 1 μg/kg or 5 μg/kg body weight of EX-2 (treated), or 1 ml/kg body weight of saline (control). On day 10, all animals were stress tested on the treadmill until they reached exhaustion. Data on maximum VO2 and running time were collected and compared to pre-suspension results. On day 14, all animals were sacrificed, and blood, tissues, and organs were collected for further analysis. All procedures and tests were performed blind to avoid researcher subjectivity. Statistical significance (p<0.05) between groups was evaluated by ANOVA with Student-Newman-Keuls test for multiple comparisons. All data are reported as the mean ± standard error (SE).\nAll of the animals were subjected to the stress tests, which measured exercise time and maximal VO2. As well, levels of the oxidative enzyme soleus citrate synthase and tibia bone density were measured.\nSoleus citrate synthase was attenuated by 50%."}, "Sprague-Dawley rats [2]": {"system": "Sprague-Dawley rats", "experiment": "Cyclosporine-induced nephrotoxicity", "from_the_text": "B. Cyclosporine-Induced Nephrotoxicity: This experiment as performed to ascertain if EX-2 can mitigate the reduction in glomerular filtration rate (GFR) and renal blood flow, as well as the dysfunction in fluid and electrolyte homeostasis induced by immunosuppressive treatment with cyclosporine A.\nIn the first study, male Sprague-Dawley rats (n=43) with a weight range of 240-290 g at the initiation of the cyclosporine A (CsA) treatment were divided into 4 weight matched groups. The groups were as follows: (1) Control: no CsA, no EX-2, treatment only with CsA vehicle (PBS) PO and EX-2 vehicle (also PBS) IP; (2) CsA: treatment with CsA (50 mg/kg in PBS administered PO daily at 0830 hr for 9 days) and IP injections of PBS (Ex-2 vehicle); (3) CsA and 50 μg: CsA treatment identical to group 2 with the addition of EX-2 (50 μg/kg IP administered daily at 0800 and 1700 hr in EX-2 vehicle); and (4) CsA and 500 μg: CsA treatment identical to groups 2 and 3, and EX-2 treatment protocol similar to group 3 except that the dose of EX-2 was 500 μg/kg BW. After deep anesthesia was assured, the rats were cannulated in the trachea (PE 240) jugular vein, femoral artery, and bladder (PE 50 for the previous 3 cannulations).After cannulation, infusion of ^3 H-inulin was initiated 50 min prior to the measurement period to assess glomerular filtration rate, renal blood flow and plasma flow. Renal blood flow was determined by the inulin extraction technique. At the end of the study, the kidneys were removed for histological analysis.\nIn the second study, male Sprague-Dawley rats (n=31) with a weight range of 240-290 g at the time of initiation of the cyclosporine treatment were divided into 4 weight-matched groups. […] Renal hemodynamics were determined and extracellular fluid volumes were also assessed.\nIn the second study, where extracellular fluid volumes (ECF) were measured, there were no differences in ECF among control and treatment groups (27.6±1.9 in control, 27.5±1.7 in CsA and vehicle, 26.2±0.9 in CsA+200 μg/kg EX-2, and 25.7±1.4% in CsA+500 μg/kg EX-2). […]"}}, "data": [{"substance": "Ac-Nle-Gln-His-(D)Phe-Arg-(D)Trp-Gly-NH2 [EX-2]", "values": [{"measurement": "Reduction in LPS-induced Fever", "setting": "Wistar rats; 50 μg/kg IP", "value": 45, "unit": "%"}, {"measurement": "Reduction in LPS-induced Fever", "setting": "Wistar rats; 150 μg/kg IP", "value": 52, "unit": "%"}, {"measurement": "% Attenuation of suspension-induced decrease: Soleus Citrate Synthase", "setting": "Sprague-Dawley rats [1]; day 14", "value": 50, "unit": "%"}, {"measurement": "% Attenuation of suspension-induced decrease: Tibia Bone Density", "setting": "Sprague-Dawley rats [1]; day 14", "value": 50, "unit": "%"}, {"measurement": "% Attenuation of suspension-induced decrease: Exercise Time", "setting": "Sprague-Dawley rats [1]; treadmill day 10", "value": 44, "unit": "%"}, {"measurement": "% Attenuation of suspension-induced decrease: Maximal VO2", "setting": "Sprague-Dawley rats [1]; treadmill day 10", "value": 80, "unit": "%"}, {"measurement": "Renal blood flow in CsA-treated rats", "setting": "Sprague-Dawley rats [2]; EX-2 IP twice daily with CsA, both studies", "value": "improved blood flow to values not different from control"}, {"measurement": "GFR in CsA-treated rats", "setting": "Sprague-Dawley rats [2]; compared to CsA and vehicle controls, both studies", "value": "significantly increased GFR"}, {"measurement": "Urinary protein excretion in CsA-treated rats", "setting": "Sprague-Dawley rats [2]; compared to CsA-treated rats", "value": "did not increase urinary protein excretion"}]}]}
